Test results reported in US20260287509A1, “METHOD FOR MEASURING CELLULAR MECHANICS IN AN IN VITRO FIBROSIS MODEL” (National Cheng Kung University, priority 2023, published 2026).

Columns and labels:
NRK-49F cells [1] = assay: Confocal fluorescence imaging of FITC-labeled collagen fibers in NRK-49F cultures (FITC content); assay type: cell-based, rat; conditions: after TGF-β1 stimulation vs control; FIG. 3 and FIG. 4 (FITC content)
Description: (§1) To clearly distinguish the cells from surrounding proteins, the method employs multiple fluorescent proteins for labeling. In this embodiment, rat renal fibroblasts (NRK-49F cells) were transfected to express Lifeact-RFP and cultured on collagen gels conjugated with FITC-labeled type-I collagen. The cultures were divided into a group treated with TGF-β1 and a control group without TGF-β1. TGF-β1 was added to mimic the activation of fibroblasts into myofibroblasts in fibrotic conditions such as kidney fibrosis and keloid, enabling subsequent analysis of cell contraction and collagen fiber interactions.
(§2) In this embodiment, the coaxial microscope system combines a laser-scanning confocal microscope (FV3000, Olympus) with sharp tip probe-equipped atomic-force microscope (BioScope Resolve, Bruker) […]. Before measurement, the spring constant, deflection sensitivity, and position of the probe were calibrated using No-Touch mode in AFM and vision in confocal microscopy.
FIG. 2 schematically illustrates a simplified experimental workflow for selecting the regions of interest and examining the sample using a coaxial microscope system of the laser scanning confocal microscope and the atomic force microscope. […] Finally, the fluorescence and morphological images are merged, and the mechanical properties of the cells and collagen fibers are analyzed using software

NRK-49F cells [2] = assay: Atomic force microscope measurement of stiffness and morphology of NRK-49F cells and collagen fibers in the in vitro fibrosis model (coaxial AFM/confocal system); assay type: cell-based, rat
Description: as §1, §2
Additionally, prior to measurement, a hydrophobic material is coated onto the sharp tip probe of the atomic force microscope. This prevents the probe from adhering to collagen fibers during scanning of the sample, thereby maintaining measurement accuracy.
After calibration, the regions of interest can be selected, captured, and measured using the coaxial microscope system. The elastic moduli are calculated from force-distance curves using a modified Sneddon model implemented in Bruker data-analysis software. Collagen fibers and cells are further analyzed for morphology and rigidity using NanoScope Analysis software (v1.9, Bruker).
FIG. 2 schematically illustrates a simplified experimental workflow for selecting the regions of interest and examining the sample using a coaxial microscope system of the laser scanning confocal microscope and the atomic force microscope. FITC-labeled collagen gels are prepared and seeded with Lifeact-RFP-transfected NRK-49F cells. After 24 hours of culture, drugs are added and media are refreshed. The prepared sample is mounted on the coaxial microscope system, the scan area is marked, and the sample is adjusted to the pre-marked area. Subsequently, images are acquired using the coaxial confocal microscope and atomic force microscope. Finally, the fluorescence and morphological images are merged, and the mechanical properties of the cells and collagen fibers are analyzed using software

[3] = after TGF-β1 treatment vs control, AFM images, figure not shown

Substance: transforming growth factor β1 [TGF-β1]
- density of collagen fibers (NRK-49F cells [1]): markedly increased
- increase in stiffness of collagen fibers (NRK-49F cells [2]; TGF-β1-treated vs control without TGF-β1, FITC-labeled type-I collagen gel seeded with Lifeact-RFP NRK-49F cells, AFM elastic modulus, FIG. 6): approximately 6.5 fold
- increase in stiffness of NRK-49F cells (NRK-49F cells [2]; TGF-β1-treated vs control without TGF-β1, Lifeact-RFP NRK-49F cells on collagen gel, AFM elastic modulus, FIG. 6): ~6.7 fold
- angle between collagen fibers and NRK-49F cells (A) (NRK-49F cells [2]; [3]): no significant difference
- diameter of collagen fibers (D1) (NRK-49F cells [2]; [3]): no significant difference
